Measurements as given in patent US6641783B1, “Chromatographic systems with pre-detector eluent switching” (priority 1999, dated 2003).

Experiments:
[1] = Capacity factor of the test solute on an immobilized artificial membrane HPLC column; format: physicochemical; details: EsterIAM.PC C10/C3 column, 15% acetonitrile in PBS, 1 mL/min
Text: (§1) The chromatographic process represents a reversible equilibrium of solutes between the mobile phases and the stationary phases. The magnitude of solute retention is a direct result from this equilibrium and is typically expressed by a parameter, the capacity factor, k′=(tr−to)/to where to is the dead time and tr is the retention time of the solutes. The capacity factor is therefore a stoichiometric mass distribution equilibrium of solutes between the mobile phases and the stationary phases, and its determination allows the calculation of various physicochemical values according to pre-determined algorithms.
(§2) Unless otherwise indicated, the experimental data reported in this section was collected under the following conditions: UV detection at 280 nm, UV flow cell: 14 μL, mobile phase: 15% acetonitrile in PBS buffer at 1 mL/min., injection volume: 10 μL (sample amount: 2 μg), eluent switch rate: 1 Hz/column, and one pump per column (one binary pump used at two different pumps).
(§3) Retention time data is reported as capacity factors k′=(tr−to)/to. The most critical preliminary data to obtain, however, was to experimentally determine the minimum peak washing times (volumes) needed to obtain good chromatographic peak characterization with the hardware designed and assembled as shown in FIG. 7. […]

[2] = Capacity factor of the test solute on a C8 HPLC column; format: physicochemical; details: 15% acetonitrile in PBS, 1 mL/min
Text: as §1, §2, §3

[3] = Eluent Switch (parallel chromatography), 1 Hz/column
[4] = No Switch (single column chromatography)

COc1ccc(C)cc1 [4-methylanisole]
k′ (Capacity factor) [1, 3]: 7.13 | k′ (Capacity factor) [1, 4]: 7.48 | k′ (Capacity factor) [2, 3]: 23.71 | k′ (Capacity factor) [2, 4]: 23.04
